Tests used:
Human M4 = target: T1, Human M4 (Homo sapiens, UniProt P08173); experiment: mAChR M4 cell-based functional assay (calcium flux, EC80 acetylcholine response); settings: M4/Gqi5/CHO-K1 cells; for remaining activity at 30 µM: % ACh maximum at 30 μM, read-out: Human M4 Emin (% ACh maximum at 30 μM); for IC50: decrease of the response to an EC80 concentration of acetylcholine, read-out: Human M4 IC50
T1 construct: expressed in transfected cells; host or cells: CHO-K1 (Chinese hamster ovary, ATCC), stably expressing M4 and Gqi5
T1 sequence (P08173 1-479): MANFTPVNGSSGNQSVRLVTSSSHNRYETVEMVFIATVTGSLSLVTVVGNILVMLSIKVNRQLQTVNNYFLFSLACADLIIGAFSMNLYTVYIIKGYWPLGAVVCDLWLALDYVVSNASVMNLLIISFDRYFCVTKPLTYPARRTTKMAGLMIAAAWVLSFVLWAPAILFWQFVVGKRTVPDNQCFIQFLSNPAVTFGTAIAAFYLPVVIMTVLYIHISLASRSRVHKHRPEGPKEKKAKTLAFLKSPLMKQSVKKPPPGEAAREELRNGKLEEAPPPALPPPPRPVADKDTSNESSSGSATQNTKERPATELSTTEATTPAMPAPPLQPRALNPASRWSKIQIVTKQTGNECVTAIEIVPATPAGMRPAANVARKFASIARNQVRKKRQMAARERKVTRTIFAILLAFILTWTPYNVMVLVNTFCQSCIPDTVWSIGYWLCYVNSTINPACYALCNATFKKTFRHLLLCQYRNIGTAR
Experimental: Human or rat M4 cDNA, along with the chimeric G protein Gqi5, were transfected into Chinese hamster ovary (CHO-K1) cells purchased from the American Type Culture Collection using Lipofectamine2000. M4/Gqi5/CHO cells were grown in Ham's F-12 medium containing […] heat-inactivated fetal bovine serum (FBS), 20 mM HEPES, 500 μg/mL G418 sulfate, and 200 μg/mL Hygromycin B.
For high throughput measurement of agonist-evoked increases in intracellular calcium, CHO-K1 cells stably expressing muscarinic receptors were plated in growth medium lacking G418 and hygromycin at 15,000 cells/20 μL/well in Greiner 384-well black-walled, tissue culture (TC)-treated, clear-bottom plates (VWR). Cells were incubated overnight at 37° C. and 500 CO2. […] Compound master plates were formatted in a 10 point concentration-response curve (CRC) format (1:3 dilutions) in 100% DMSO with a starting concentration of 10 or 1 mM using a BRAVO liquid handler (Agilent). Test compound CRCs were then transferred to daughter plates (240 nL) using the Echo acoustic plate reformatter (Labcyte, Sunnyvale, CA) and then diluted into assay buffer (40 μL) to a 2× stock using a Thermo Fisher Combi (Thermo Fisher Scientific, Waltham, MA).
Calcium flux was measured using the Functional Drug Screening System (FDSS) 6000 or 7000 (Hamamatsu Corporation, Tokyo, Japan) as an increase in the fluorescent static ratio. Compounds were applied to cells (20 μL, 2×) using the automated system of the FDSS at 2 seconds into the protocol and the data were collected at 1 Hz. […] Agonist activity was analyzed as a concentration-dependent increase in calcium mobilization upon compound addition. Positive allosteric modulator activity was analyzed as a concentration-dependent increase in the EC20 acetylcholine response. Antagonist activity was analyzed as a concentration-dependent decrease in the EC80 acetylcholine response; for the purposes of the tables herein, an IC50 (inhibitory concentration 50) was calculated as a concentration-dependent decrease of the response elicited by an EC80 concentration of acetylcholine. Concentration-response curves were generated using a four-parameter logistical equation in XLFit curve fitting software (IDBS, Bridgewater, NJ) for Excel (Microsoft, Redmond, WA) or Prism (GraphPad Software, Inc., San Diego, CA) or the Dotmatics software platform (Dotmatics, Bishop's Stortford, UK).
Compounds were synthesized as described above.

[1] = system: catalepsy induced by the DA receptor antagonist haloperidol; settings: cited from earlier work

Structure (SMILES)	remaining activity at 30 µM (Human M4)	IC50 (Human M4)	reduction of haloperidol-induced catalepsy ([1]; M4 KO mice)	reversal of haloperidol-induced catalepsy ([1]; WT mice)
[2H]C([2H])(C1CCOCC1)N1C[C@H]2C[C@H](Nc3ccc(-c4ccc5nn(C(F)F)cc5c4C)nn3)C[C@H]2C1 [compound 10, (3aR,5s,6aS)-N-(6-(2-(difluoromethyl)-4-methyl-2H-indazol-5-yl)pyridazin-3-yl)-2-((tetrahydro-2H-pyran-4-yl)methyl-d2)octahydrocyclopenta[c]pyrrol-5-amine]	2%	0.36 nM		
Cc1c(-c2cc(C(F)F)c(N[C@H]3C[C@@H]4CN(CC5CCOCC5)C[C@@H]4C3)nn2)ccc2nn(C)cc12 [compound 29, (3aR,5s,6aS)-N-(4-(difluoromethyl)-6-(2,4-dimethyl-2H-indazol-5-yl)pyridazin-3-yl)-2-((tetrahydro-2H-pyran-4-yl)methyl)octahydrocyclopenta[c]pyrrol-5-amine]	3%			
[2H]C([2H])([C@@H]1CCCOC1)N1C[C@H]2C[C@H](Nc3ccc(-c4ccc5nn(C)cc5c4C)nn3)C[C@H]2C1 [compound 13, (3aR,5s,6aS)-N-(6-(2,4-dimethyl-2H-indazol-5-yl)pyridazin-3-yl)-2-(((S)-tetrahydro-2H-pyran-3-yl)methyl-d2)octahydrocyclopenta[c]pyrrol-5-amine]	4%	0.49 nM		
[2H][C@@]1(Nc2ccc(-c3ccc4nn(C)cc4c3C)nn2)C[C@H]2CN(CC3CCOCC3)C[C@H]2C1 [compound 3, (3aR,5s,6aS)-N-(6-(2,4-dimethyl-2H-indazol-5-yl)pyridazin-3-yl)-2-((tetrahydro-2H-pyran-4-yl)methyl)octahydrocyclopenta[c]pyrrol-5-d-5-amine]	2%	0.33 nM		
[2H]C([2H])([C@@H]1CCCCO1)N1C[C@H]2C[C@H](Nc3ccc(-c4ccc5nn(C)cc5c4C)nn3)C[C@H]2C1 [compound 12, (3aR,5s,6aS)-N-(6-(2,4-dimethyl-2H-indazol-5-yl)pyridazin-3-yl)-2-(((S)-tetrahydro-2H-pyran-2-yl)methyl-d2)octahydrocyclopenta[c]pyrrol-5-amine]	2%	0.36 nM		
[2H]C([2H])(C1CCOCC1)N1C[C@H]2C[C@H](Nc3ccc(-c4ccc5nn(C)cc5c4C)nn3)C[C@H]2C1 [compound 6, (3aR,5s,6aS)-N-(6-(2,4-dimethyl-2H-indazol-5-yl)pyridazin-3-yl)-2-((tetrahydro-2H-pyran-4-yl)methyl-d2)octahydrocyclopenta[c]pyrrol-5-amine]	3%	0.59 nM		
Cc1c(-c2cc(C(F)(F)F)c(N[C@H]3C[C@@H]4CN(CC5CCOCC5)C[C@@H]4C3)nn2)ccc2nn(C)cc12 [compound 30, (3aR,5s,6aS)-N-(6-(2,4-dimethyl-2H-indazol-5-yl)-4-(trifluoromethyl)-pyridazin-3-yl)-2-((tetrahydro-2H-pyran-4-yl)methyl)-octahydrocyclopenta[c]pyrrol-5-amine]	2%			
[2H]C([2H])(C1CCOCC1(C)C)N1C[C@H]2C[C@H](Nc3ccc(-c4ccc5nn(C)cc5c4C)nn3)C[C@H]2C1 (stereo partly drawn) [compound 17, (3aR,5s,6aS)-N-(6-(2,4-dimethyl-2H-indazol-5-yl)pyridazin-3-yl)-2-((3,3-dimethyltetrahydro-2H-pyran-4-yl)methyl-d2)octahydrocyclopenta[c]pyrrol-5-amine]	3%	0.9 nM		
[2H]C([2H])(C1CCOCC1)N1C[C@H]2C[C@H](Nc3nnc(-c4ccc5nn(C)cc5c4C)cc3C)C[C@H]2C1 [compound 28, (3aR,5s,6aS)-N-(6-(2,4-dimethyl-2H-indazol-5-yl)-4-methylpyridazin-3-yl)-2-((tetrahydro-2H-pyran-4-yl)methyl-d2)octahydrocyclopenta[c]pyrrol-5-amine]	17%			
[2H]C([2H])(C1CCOCC1)N1C[C@H]2C[C@H](Nc3ccc(-c4ccc5nn(C([2H])([2H])[2H])cc5c4C)nn3)C[C@H]2C1 [compound 9, (3aR,5s,6aS)-N-(6-(4-methyl-2-(methyl-d3)-2H-indazol-5-yl)pyridazin-3-yl)-2-((tetrahydro-2H-pyran-4-yl)methyl-d2)octahydrocyclopenta[c]pyrrol-5-amine]	3%	0.37 nM		
[2H]C([2H])(C1CCOCC1)N1C[C@H]2C[C@H](Nc3ccc(-c4ccc5nn(C)cc5c4C(F)(F)F)nn3)C[C@H]2C1 [compound 8, (3aR,5s,6aS)-N-(6-(2-methyl-4-(trifluoromethyl)-2H-indazol-5-yl)-pyridazin-3-yl)-2-((tetrahydro-2H-pyran-4-yl)methyl-d2)octahydrocyclopenta[c]pyrrol-5-amine]	10%	1.1 nM		
[2H]C([2H])(C1CCOC(C)(C)C1)N1C[C@H]2C[C@H](Nc3ccc(-c4ccc5nn(C)cc5c4C)nn3)C[C@H]2C1 (stereo partly drawn) [compound 18, (3aR,5s,6aS)-N-(6-(2,4-dimethyl-2H-indazol-5-yl)pyridazin-3-yl)-2-((2,2-dimethyltetrahydro-2H-pyran-4-yl)methyl-d2)octahydrocyclopenta[c]pyrrol-5-amine]	4%	0.99 nM		
[2H]C([2H])(C1CCOCC1)N1C[C@H]2C[C@H](Nc3ccc(-c4ccc5nn(C([2H])([2H])[2H])cc5c4C(F)F)nn3)C[C@H]2C1 [compound 22, (3aR,5s,6aS)-N-(6-(4-(difluoromethyl)-2-(methyl-d3)-2H-indazol-5-yl)pyridazin-3-yl)-2-((tetrahydro-2H-pyran-4-yl)methyl-d2)octahydrocyclopenta[c]pyrrol-5-amine]	4%	0.65 nM		
CN1[C@@H]2C[C@@H](OC(=O)[C@H](CO)c3ccccc3)C[C@H]1[C@@H]1O[C@@H]12 [scopolamine]			ineffective	completely reversed

Source: US20240174655A1, “INDAZOLE DERIVATIVES AS ANTAGONISTS OF THE MUSCARINIC ACETYLCHOLINE RECEPTOR M4” (Vanderbilt University, priority 2021, published 2024)
